Data from US11319300B2, “Polyfluoro-substituted aromatic heterocyclic derivative, pharmaceutical composition containing same, and applications thereof” (ZHEJIANG UNIVERSITY, priority 2017, dated 2022).
Where a name gives a salt, the structure may show the parent alone. Marks after values point to notes of the source that are not given here.

Tests used:
hERG potassium channel = biological target: T1, hERG potassium channel (Homo sapiens, UniProt Q12809); experiment: hERG potassium channel inhibition, manual whole-cell patch clamp in CHO hERG cells; assay type: cell-based; conditions: 3 μM, CHO hERG cells, patch clamp
T1 construct: host or cells: CHO
T1 sequence (Q12809 whole entry): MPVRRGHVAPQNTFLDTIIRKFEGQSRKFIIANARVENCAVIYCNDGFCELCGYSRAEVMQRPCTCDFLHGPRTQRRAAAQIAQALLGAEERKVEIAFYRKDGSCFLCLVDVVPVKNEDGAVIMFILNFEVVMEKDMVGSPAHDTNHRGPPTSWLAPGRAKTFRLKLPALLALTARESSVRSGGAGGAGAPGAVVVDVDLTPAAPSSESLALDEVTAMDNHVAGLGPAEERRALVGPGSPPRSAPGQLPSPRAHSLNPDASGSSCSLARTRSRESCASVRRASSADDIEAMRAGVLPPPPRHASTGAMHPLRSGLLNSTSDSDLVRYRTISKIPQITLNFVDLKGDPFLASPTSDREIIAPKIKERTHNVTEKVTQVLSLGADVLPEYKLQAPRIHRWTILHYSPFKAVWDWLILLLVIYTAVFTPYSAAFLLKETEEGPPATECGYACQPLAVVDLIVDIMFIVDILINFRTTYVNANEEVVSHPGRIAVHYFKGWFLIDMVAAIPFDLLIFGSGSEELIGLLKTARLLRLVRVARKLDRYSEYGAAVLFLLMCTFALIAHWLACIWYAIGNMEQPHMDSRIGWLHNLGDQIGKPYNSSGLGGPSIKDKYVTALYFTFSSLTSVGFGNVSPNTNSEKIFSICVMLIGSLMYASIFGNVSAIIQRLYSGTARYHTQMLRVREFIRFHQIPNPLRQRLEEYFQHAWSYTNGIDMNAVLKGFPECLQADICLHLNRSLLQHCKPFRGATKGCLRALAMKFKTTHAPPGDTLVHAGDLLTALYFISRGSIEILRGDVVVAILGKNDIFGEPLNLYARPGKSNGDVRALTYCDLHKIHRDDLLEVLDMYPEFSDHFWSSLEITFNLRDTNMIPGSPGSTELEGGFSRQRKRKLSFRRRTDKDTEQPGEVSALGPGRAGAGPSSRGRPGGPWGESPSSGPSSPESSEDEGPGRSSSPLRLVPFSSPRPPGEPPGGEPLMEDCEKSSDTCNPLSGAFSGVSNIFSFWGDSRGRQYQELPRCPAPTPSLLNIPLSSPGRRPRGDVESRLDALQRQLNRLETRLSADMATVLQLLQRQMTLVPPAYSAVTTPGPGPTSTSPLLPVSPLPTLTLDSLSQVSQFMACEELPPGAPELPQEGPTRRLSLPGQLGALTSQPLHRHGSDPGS
Protocol: A Sixty-Third Embodiment: hERG Potassium Channel Inhibition Activity Experiment
The cells used in this assay were CHO cell lines transfected with hERG cDNA and stably expressing the hERG channel (supplied by Sophion Bioscience, Denmark). The cells were cultured in medium containing the following components (all from Invitrogen): Ham's F12 medium, 10% (v/v) inactivated fetal bovine serum, 100 μg/ml hygromycin B, and 100 μg/ml Geneticin. 2.1.2CHO hERG cells were grown in a Petri dish containing the above culture solution, and cultured in an incubator containing 5% of CO2 at 37° C. 24 to 48 hours prior to electrophysiological experiments, CHO hERG cells were transferred to circular glass slides placed in petri dishes and grown under the same culture and culture conditions as above. The density of CHO hERG cells on each circular slide requires that most cells achieve independent, individual requirements.
2. Compound Treatment and Dilution
To obtain the IC50 of the compound, we selecte the following concentrations (30, 10, 3, 1, 0.3, and 0.1 μM) for testing. Prior to testing, the […] were first diluted to 10, 3, 1, 0.3, and 0.1 mM stock solution in gradual dilution with DMSO and then diluted to the final μM test concentration with extracellular fluid. The final concentration of DMSO in each of the other compound solutions was 0.1% except that the DMSO concentration in the 30 μM compound test solution was 0.3%. The positive control Cisapride (cishabili) was tested at a concentration of 0.1 μM. All compound solutions were sonicated and shaken for 5 to 10 minutes to ensure complete dissolution of the compound.
3. Electrophysiological Recording System and Data Analysis
This experiment uses a manual patch clamp system (HEKA EPC-10 signal amplifier and digital conversion system, purchased from HEKA Electronics, Germany) for the recording of whole cell currents. Round slide with CHO hERG cells on the surface was placed in an electrophysiology recording cell under an inverted microscope. The extracellular fluid was continuously perfused in the recording tank (about 1 ml per minute). The experimental procedure uses conventional whole-cell patch clamp current recording techniques. Unless otherwise stated, the experiments were carried out at regular room temperature (˜25° C.). The cells were clamped at a voltage of −80 mV. The cell clamp voltage was depolarized to +20 mV to activate the hERG potassium channel, and after 5 seconds it was clamped to −50 mV to eliminate inactivation and generate tail current. The tail current peak was used as the value of the hERG current magnitude. After the hERG potassium current recorded in the above step was stabilized under the continuous extracellular fluid perfusion in the recording tank, the drug to be tested can be superimposed and filled until the inhibitory effect of the drug on the hERG current reaches a steady state. Generally, the recent three consecutive current recording lines were recombined as a criterion for judging whether or not the state is stable. After reaching a steady state, extracellular fluid perfusion rinse until hERG current returns to the size before adding drug. One cell can test one or more drugs, or multiple concentrations of the same drug, but need to be flushed with extracellular fluid between different drugs. Cisapride (cisapride, purchased from Sigma) was used in the experiment as a positive control to ensure that the cells used were of normal quality. The test data was analysed by HEKA Patchmaster, Microsoft Excel and data analysis software provided by Graphpad Prism.

HCT-116 = experiment: Tumour cell proliferation inhibition, MTT assay, HCT-116; assay type: cell-based, human
Protocol: (§1) Compound AZD5363 (NCT02208375, NCT02208375, NCT01625286), which have entered the clinical phase II study, was used as a positive control, and the compound was assayed against common tumour cell lines (human ovarian cancer cell line OVCAR-8 and human colon cancer cell line HCT-116) by MTT assay, at the same time, the akt1 enzyme inhibitory activity (IC50) was evaluated using a commercial Akt1 kit.
1) The pharmacological test method for the tumour cell proliferation inhibiting activity of the compound of the present invention was as follows:
The first was the determination of in vitro tumour growth inhibitory activity and the preliminary structure-activity relationship study, and different solid tumour cell lines were used to determine the in vitro antitumour activity of the synthesized compounds.
Experimental materials: cell lines: human ovarian cancer cells (OVCAR8), colon adenocarcinoma cells (HCT-116),
Medium: OVCAR8: RPMI 1640+fetal calf serum
Drug preparation method: dissolving the drug in DMSO to make a 50 mM of stock solution, and diluting it to a certain ratio to obtain 5 different concentrations.
Tumour Cells being Cultured In Vitro:
The selected tumour cells were incubated in a, 5% of CO2 cell incubator at 37° C., and passaged until the cell density was 70 to 90% (the adherent cells were passaged with Duck's EDTA) and used for subsequent experiments.
The compound was dissolved in dimethyl sulfoxide (DMSO), diluted, and tumour cells were seeded into 4000 cells/200 μL/well in 96-well plates, and 1 μL of compound was added to each well to a final concentration of 50 μM, 10 μM, 2 μM, and 0.4 μM. 0.08 μM were incubated in a, 5% of CO2 cell incubator at 37° C. for 72 hours with DMSO (1%) as a blank control.
The calculation formula of the cell inhibition rate is: cell inhibition rate %=(control group OD value−drug group OD value)/control cell OD value×100%, and the half inhibition concentration (IC50) was determined by the Bliss method.

AKT1/PKBα = biological target: T2, AKT1/PKBα (Homo sapiens, UniProt P31749); experiment: Akt1 enzyme inhibitory activity, AKT1/PKBα KinEASE FP Fluorescein Green Assay; assay type: biochemical; conditions: fluorescence polarization kit assay; read-out: Akt1 IC50 (grade)
T2 construct: purchased
T2 sequence (P31749 whole entry): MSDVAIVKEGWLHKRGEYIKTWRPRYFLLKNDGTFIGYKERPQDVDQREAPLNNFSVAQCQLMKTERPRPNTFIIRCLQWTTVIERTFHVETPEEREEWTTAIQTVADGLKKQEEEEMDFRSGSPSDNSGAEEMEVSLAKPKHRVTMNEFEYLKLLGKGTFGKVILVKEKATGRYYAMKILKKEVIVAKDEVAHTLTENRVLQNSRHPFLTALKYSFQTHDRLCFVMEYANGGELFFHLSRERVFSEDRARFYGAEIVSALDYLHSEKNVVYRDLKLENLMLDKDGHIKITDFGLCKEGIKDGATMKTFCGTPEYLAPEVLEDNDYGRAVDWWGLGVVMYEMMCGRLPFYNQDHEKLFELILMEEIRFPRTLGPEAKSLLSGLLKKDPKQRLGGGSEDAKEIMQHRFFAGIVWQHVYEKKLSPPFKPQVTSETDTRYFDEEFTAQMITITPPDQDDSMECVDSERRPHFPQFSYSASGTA
Protocol: as §1
2) Test method for the inhibitory activity of the compound of the present invention against Akt1 enzyme:
The AKT1/PKBα KinEASE™ FP Fluorescein Green Assay (Kinase Green Fluorescence Detection System) was used to detect the inhibitory activity of the compound on AKT1/PKBα.
Fluorescence polarization detection protein kinase B employs the principle of a competitive reaction: a fluorescently labeled phosphorylated tracer and an unlabeled phosphorylated product produced by the reaction of protein kinase B will compete with the anti-serine antibody for binding. In a reaction mixture […], when a part of the fluorescent tracer binds to the antibody, it causes a higher polarization value. However, in the reaction solution mixture containing the phosphorylated product, less tracer binds to the antibody (the fluorescent tracer was replaced from the antibody) and the emitted signal was depolarized. Therefore, the change in polarization was directly related to the activity of protein kinase B in the reaction.
The compound of the present invention and the positive control AZD5363 were dissolved in dimethyl sulfoxide (DMSO) and diluted to a concentration of 50 μM. At room temperature, 0.25 μl of the compound sample and the positive control at a concentration of 50 μM were taken and added to the 384-well plate, and three parallel wells were set for each sample, and then 10 μl of STK Substrate 3, Working Solution, 5 μl AKT1/PKBα Working Solution, 10 μl ATP Working Solution were added to each sample well plate with vibrating gently and shaking for a few minutes. The reaction starts after 10 μl of ATP Working Solution was added to the well, and the reaction was timed at room temperature for 1 hour. After one hour, 5 μl of STK Stop Mix and 5 μl of STK Antibody Mix were added to each well respectively to stop the reaction. After the addition completes, it was allowed to stand at room temperature for four hours, and the polarization value of the sample was detected by the fluorescence polarization of the microplate reader (it was effective to detect its signal within 24 hours), and the inhibition rate of the compound was calculated by the polarization value, and then IC50 was calculated.
Four sets of controls were set in the experiment, namely Buffer Control Wells, Tracer Control Wells, No Enzyme Wells, and a blank dimethyl sulfoxide control. The resulting data was used to calculate the inhibition rate.
The activity of the compound was divided into three grades according to the size of the IC50 of the Akt inhibitory activity: “+++”, 1 nM<IC50<10 nM; “++”, 10 nM<IC50<50 nM; “+”, 50 nM<IC50.

HGC27 = experiment: Tumour cell proliferation inhibition, MTT assay, HGC27; assay type: cell-based, human
786-O = experiment: Tumour cell proliferation inhibition, MTT assay, 786-O; assay type: cell-based, human
CEM-C1 = experiment: Tumour cell proliferation inhibition, MTT assay, CEM-C1; assay type: cell-based, human
MCF-7 = experiment: Tumour cell proliferation inhibition, MTT assay, MCF-7; assay type: cell-based, human
[1] = tested on: human gastric cancer HGC27 nude mice xenografts; experiment: In vivo antitumour activity, human gastric cancer HGC27 nude mice xenografts; conditions: HGC27 xenograft, 50 mg/kg intragastric once a day
Protocol: A Sixty-Fifth Embodiment: In Vivo Antitumour Activity of Compounds
1) Establishment of a nude mouse xenograft model: 1×10^7 test tumour cells were injected into the armpit of nude mice, after three generations, HGC27 mouse tumour blocks were dissected and placed in a glass dish containing physiological saline, after the necrotic area was removed by incision, the tumour mass was cut into 1-2 mm^3 and inserted into the left axilla of the nude mouse with a trocar.
2) Animal grouping and drug delivery arrangements: after the tumour grows to an average volume of 100-300 mm^3, 20 mice were randomly grouped according to the tumour volume, and the above test animals were given the corresponding test substances by intragastric administration at a dose of 10 mL/kg with once a day.
3) Data measurement and statistics: The tumour volume was weighed and measured twice and dosing period was 21 days. On the 22nd day, after the body weight was weighed and the tumour volume was measured, the nude mice were sacrificed and the tumours were weighed to calculate the relative tumour volume (RTV), relative tumour growth rate (T/C) and tumour inhibition percentage (IR) for statistical testing. The calculation formula was as follows: (a) TV (tumour volume)=½×a×b^2, wherein a and b represent the length and width of the tumour respectively, (b) RTV (relative tumour volume)=Vt/V0, Where V0 is the tumour volume measured at the time of group administration (i.e. d0), Vt is the tumour volume at each measurement, (c) T/C (%)=TRTV/CRTV×100%, wherein TRTV is the RTV of treatment group, CRTV is the RTV of the solvent control group, (d) IR (%)=(1−TWt/TWc)×100%, wherein TWt is the tumour weight of the treatment group, and TWc is the tumour weight of the solvent control group.

Structure (SMILES) | IC50 (HCT-116; Homo sapiens, HCT-116, 72 h) | IC50 (AKT1/PKBα) | IC50 (HGC27; Homo sapiens, HGC-27, 72 h) | IC50 (786-O; Homo sapiens, 786-0, 72 h) | IC50 (CEM-C1; Homo sapiens, CEM/C1, 72 h) | IC50 (MCF-7; Homo sapiens, MCF7, 72 h) | other results
Cn1ncc(Cl)c1-c1cc(C(=O)N[C@H]2CNCC[C@@H]2c2ccc(F)c(F)c2)oc1Cl (racemic) [reference compound] |  |  |  |  |  |  | hERG (Inhibition rate at 3 μM concentration) (hERG potassium channel): 62%
Cn1nccc1-c1ccc(C(=O)N[C@@H]2CNCC[C@H]2c2cc(F)c(F)c(F)c2)c(F)c1 [VII-8] | 1520 nM | 1 to 10 nM | 20 nM | 1650 nM | 120 nM | 1850 nM | hERG (Inhibition rate at 3 μM concentration) (hERG potassium channel): 11.8%
Cn1nccc1-c1cc(F)c(C(=O)N[C@@H]2CNCC[C@H]2c2ccc(F)c(F)c2)cc1F [VII-18] | 990 nM | 1 to 10 nM | 30 nM | 550 nM | 20 nM | 1180 nM | hERG (Inhibition rate at 3 μM concentration) (hERG potassium channel): 17.6%
Cn1nccc1-c1ccc(C(=O)N[C@@H]2CNCC[C@H]2c2ccc(F)c(F)c2)c(F)c1 [VII-31, D-malate] |  | 1 to 10 nM |  |  |  |  | IC50 (HCT-116; 72 hours, D-malate): 1520 nM; IC50 (HGC27; 72 hours, D-malate): 10 nM; IC50 (786-O; 72 hours, D-malate): 650 nM; IC50 (CEM-C1; 72 hours, D-malate): 100 nM; IC50 (MCF-7; 72 hours, D-malate): 2960 nM
Cn1nccc1-c1ccc(C(=O)N[C@@H]2CNCC[C@H]2c2ccc(F)c(F)c2)c(F)c1.O=C(O)C(O)C(O)C(=O)O [VII-33, L-tartrate] |  | 1 to 10 nM |  |  |  |  | IC50 (HCT-116; 72 hours, L-tartrate): 3100 nM; IC50 (HGC27; 72 hours, L-tartrate): 40 nM; IC50 (786-O; 72 hours, L-tartrate): 820 nM; IC50 (CEM-C1; 72 hours, L-tartrate): 90 nM; IC50 (MCF-7; 72 hours, L-tartrate): 2250 nM
Cn1nccc1-c1ccc(C(=O)N[C@@H]2CNCC[C@H]2c2ccc(F)c(F)c2)c(F)c1 [VII-34, D-tartrate] |  | 1 to 10 nM |  |  |  |  | IC50 (HCT-116; 72 hours, D-tartrate): 2150 nM; IC50 (HGC27; 72 hours, D-tartrate): 30 nM; IC50 (786-O; 72 hours, D-tartrate): 1060 nM; IC50 (CEM-C1; 72 hours, D-tartrate): 130 nM; IC50 (MCF-7; 72 hours, D-tartrate): 3090 nM
Cn1nccc1-c1ccc(C(=O)N[C@@H]2CNCC[C@H]2c2ccc(F)c(F)c2)c(F)c1 [VII-37, citrate] |  | 1 to 10 nM |  |  |  |  | IC50 (HCT-116; 72 hours, citrate): 1060 nM; IC50 (HGC27; 72 hours, citrate): 50 nM; IC50 (786-O; 72 hours, citrate): 670 nM; IC50 (CEM-C1; 72 hours, citrate): 110 nM; IC50 (MCF-7; 72 hours, citrate): 1360 nM
Cn1nccc1-c1ccc(C(=O)N[C@@H]2CNCC[C@H]2c2ccc(F)c(F)c2)cc1 [drawing 111, reference compound] | 10500 nM | 10 to 50 nM | 190 nM | 2060 nM | 620 nM | 10600 nM | 
Cn1nccc1-c1ccc(C(=O)N[C@@H]2CNCC[C@H]2c2ccc(F)c(F)c2)cc1 [drawing 115, reference compound] |  |  |  |  |  |  | RTV [1]: 22.60 ± 12.41; T/C(%) [1]: 53.75%; Tumour volume D1 ([1]; D1 (start)): 216 ± 98 mm^3; Tumour volume D22 ([1]; D22): 1650 ± 720* mm^3
Cn1ncc(Cl)c1-c1ccc(C(=O)N[C@@H]2CNCC[C@H]2c2ccc(F)c(F)c2)cc1F [reference compound] | 5860 nM | 10 to 50 nM | 120 nM | 1280 nM | 570 nM | 6320 nM | 
Cn1ncc(Cl)c1-c1ccc(C(=O)N[C@@H]2CNCC[C@H]2c2ccc(Cl)cc2)c(C(F)(F)F)c1 [reference compound] | 6150 nM | 1 to 10 nM | 180 nM | 2990 nM | 440 nM | 5130 nM | 
